Data: patent US9687480B2, “Chiral 1-(4-methylphenylmethyl)-5-oxo-{N-[(3-t-butoxycarbonyl-aminomethyl)]-piperidin-1-yl)-pyrrolidine as inhibitors of collagen induced platelet activation and adhesion” (Council of Scientific & Industrial Research, priority 2011, dated 2017)
Where two headings read alike, the source gives them in different places.

What was measured:
[1] = system: human platelet rich plasma (TRAP induced aggregation); experiment: TRAP (SFLLRN) induced platelet aggregation, human platelet rich plasma (in vitro); format: cell-based; conditions: for IC50: human PRP, 25 μM TRAP, read-out: TRAP induced platelet aggregation studies (Human) IC50; for effect on TRAP induced platelet aggregation: up to 300 μM
Procedure: (§1) The reaction was allowed to proceed for at least 5 min, and the extent of aggregation was expressed in light-transmission units (Ivandic B T, Schlick P, Starltz P, Kurz K, Katas H A, Giannitsis E. Determination of clopidogrel resistance by whole blood platelet aggregometry and inhibitors of the P2Y12 receptor. Clinical Chemistry 2006: 52:383-88).
(§2) The percentage of aggregation was calculated by using following formula: Percent Aggregation=A/B×100 Where, A is the number of division traversed by the label on chart in the presence of Inducer & B is the total number of divisions (80). Platelet Aggregation Studies (FIG. 3) a) Platelet Aggregation (Human, In Vitro) (FIG. 3a (i) (ii) (iii))

[2] = biological target: T1, Integrin α2β1 (Homo sapiens, UniProt P05556+P17301); experiment: α2β1-mediated platelet adhesion assay on soluble collagen (human, in vitro); format: cell-based; conditions: washed platelets, with Mg2+
T1 construct: Washed platelets, suspended in the Tyrode's-HEPES buffer; endogenous in cells; host or cells: washed human platelets from healthy volunteers
Procedure: Fresh blood was drawn by venipuncture from consenting healthy human volunteers in citrate-phosphate-dextrose. Platelet-rich plasma (PRP) was obtained by centrifugation at 180 g for 20 minutes at room temperature (Beckman TJ6. USA). […] Platelets were then washed twice with Buffer (20 mMHEPES, 138 mM NaCl, 2.9 mMKCl, 1 mMMgCl2, 0.36 mMNaH2PO4, 1 mM EGTA, 4.77 mM trisodium citrate, and 2.35 mM citric acid, 5 mM glucose and Apyrase 1 U/ml, pH 6.5) containing 0.1% bovine serum albumin (BSA) and finally resuspended in the HEPES-buffered Tyrode solution (pH 7.4), to give a concentration of 2×10^8 cells/mL (Jandrot-Perrus M. Lagrue A H, Okuma M, and Boni C Adhesion and Activation of Human Platelets Induced by Convulxin Involve Glycoprotein VI and Integrin α2β1 J. Biol. Chem. 1997; 272: 27035-27041).
Integrin α2β1 binding on soluble collagen depends on the presence of Mg2+/Ca^2+ (Onley D. J., Knight C. G., Tuckwell D. S., Barnes M. J., and Farndale R. W. Micromolar Ca2+ concentrations are essential for Mg2+-dependent binding of collagen by the integrin α2β1 in human platelets. J. Biol. Chem, 2000; 275: 24560-24564.) while GPVI mediates adhesion over fibrillar collagen in absence of divalent ions (Nieswandt B., Brakebusch C, Bergmeier W, Schulte V, Bouvard D, Nejad R M, Lindhout T, Heemskerk J W M, Zirngibl H and Fassler R. Glycoprotein VI but not α2b1 integrin is essential for platelet interaction with collagen. The EMBO Journal, 2001; 20:2120-2130) and therefore the adhesion assays were performed in the presence or absence of these divalent cations. […]

[3] = biological target: T2, human α-thrombin (Homo sapiens, UniProt P00734); experiment: Amidolytic assay of thrombin activity (fluorogenic substrate); format: biochemical; conditions: compound 1 at 300 μM and 1 mM after 15 min of substrate incubation
T2 construct: amidolytic activity of human α-thrombin using fluorogenic substrate

[4] = system: rats; experiment: FeCl3 induced carotid artery thrombosis in rats; format: in vivo; conditions: for time to occlude the carotid artery (TTO): compound 1 at the same dose as compound 6, aspirin at a very high dose
Procedure: Male SD rats were anesthetized by urethane (1.25 g/kg, i.p.). The carotid artery was carefully dissected and a pulsed Doppler Probe (DBF-120A-CPx, CBI-8000, Crystal Biotech, USA) was placed around it to record the blood flow velocity and patency of the blood vessels. The carotid artery thrombosis was induced by FeCl3 as follows: a square (1×1 mm) of Whatman Chromatography paper was immersed in 20% FeCl3 solution for 5 min and placed on the carotid artery as described earlier (Kurz K D, Main B W, Sandusky G E. Rat model of arterial thrombosis induced by ferric chloride. Thromb Res 1990; 60(4):269-80). Thrombosis was monitored as the reduction in carotid artery blood flow. The time at which the blood-flow velocity was decreased to zero was recorded as the total of occlusion (TTO) of the carotid artery. […] (Ferric Chloride induced thrombosis (FIG. 7))

[5] = system: human platelet rich plasma (Ristocetin, GP 1b specific agonist); experiment: Ristocetin induced platelet aggregation, human platelet rich plasma (in vitro); format: cell-based; conditions: 1.5 mg/ml Ristocetin
Procedure: as §1, §2

[6] = system: mice platelet rich plasma; experiment: Platelet aggregation (mice, ex vivo) induced by collagen; format: in vivo; conditions: oral route
Procedure: as §1

[7] = system: hyperlipidemic hamsters; experiment: Arterio-venous shunt model in hyperlipidemic hamsters; format: in vivo

T1 sequence (P17301 30-1181): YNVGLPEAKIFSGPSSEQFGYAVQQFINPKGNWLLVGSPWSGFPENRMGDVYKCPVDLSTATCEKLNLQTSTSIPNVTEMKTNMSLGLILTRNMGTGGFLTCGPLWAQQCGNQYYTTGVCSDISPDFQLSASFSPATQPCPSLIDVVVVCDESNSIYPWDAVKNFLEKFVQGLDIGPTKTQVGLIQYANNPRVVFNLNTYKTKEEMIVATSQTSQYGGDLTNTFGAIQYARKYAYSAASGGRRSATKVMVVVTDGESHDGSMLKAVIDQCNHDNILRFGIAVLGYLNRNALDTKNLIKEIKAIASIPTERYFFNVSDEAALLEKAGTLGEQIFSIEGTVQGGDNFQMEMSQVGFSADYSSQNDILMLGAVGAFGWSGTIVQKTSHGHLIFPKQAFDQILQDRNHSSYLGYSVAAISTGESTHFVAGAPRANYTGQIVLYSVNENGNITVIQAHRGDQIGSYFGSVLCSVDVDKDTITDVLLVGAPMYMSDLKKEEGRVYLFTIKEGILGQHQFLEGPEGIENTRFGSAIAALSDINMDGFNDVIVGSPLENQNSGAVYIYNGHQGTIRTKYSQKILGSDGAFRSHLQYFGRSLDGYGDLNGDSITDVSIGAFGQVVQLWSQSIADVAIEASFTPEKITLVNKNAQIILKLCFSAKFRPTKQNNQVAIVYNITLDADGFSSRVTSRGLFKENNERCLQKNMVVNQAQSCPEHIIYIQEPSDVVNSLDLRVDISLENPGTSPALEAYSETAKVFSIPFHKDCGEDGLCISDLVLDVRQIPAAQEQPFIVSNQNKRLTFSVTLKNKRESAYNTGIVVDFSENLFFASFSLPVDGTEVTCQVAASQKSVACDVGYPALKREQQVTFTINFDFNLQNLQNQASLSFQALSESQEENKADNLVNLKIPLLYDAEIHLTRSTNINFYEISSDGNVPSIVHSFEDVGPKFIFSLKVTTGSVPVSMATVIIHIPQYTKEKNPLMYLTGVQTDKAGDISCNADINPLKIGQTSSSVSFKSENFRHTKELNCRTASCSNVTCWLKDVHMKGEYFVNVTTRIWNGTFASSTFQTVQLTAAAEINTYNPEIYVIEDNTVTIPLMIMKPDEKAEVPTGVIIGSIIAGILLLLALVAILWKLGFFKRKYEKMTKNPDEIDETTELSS
T1 sequence (P05556 21-798): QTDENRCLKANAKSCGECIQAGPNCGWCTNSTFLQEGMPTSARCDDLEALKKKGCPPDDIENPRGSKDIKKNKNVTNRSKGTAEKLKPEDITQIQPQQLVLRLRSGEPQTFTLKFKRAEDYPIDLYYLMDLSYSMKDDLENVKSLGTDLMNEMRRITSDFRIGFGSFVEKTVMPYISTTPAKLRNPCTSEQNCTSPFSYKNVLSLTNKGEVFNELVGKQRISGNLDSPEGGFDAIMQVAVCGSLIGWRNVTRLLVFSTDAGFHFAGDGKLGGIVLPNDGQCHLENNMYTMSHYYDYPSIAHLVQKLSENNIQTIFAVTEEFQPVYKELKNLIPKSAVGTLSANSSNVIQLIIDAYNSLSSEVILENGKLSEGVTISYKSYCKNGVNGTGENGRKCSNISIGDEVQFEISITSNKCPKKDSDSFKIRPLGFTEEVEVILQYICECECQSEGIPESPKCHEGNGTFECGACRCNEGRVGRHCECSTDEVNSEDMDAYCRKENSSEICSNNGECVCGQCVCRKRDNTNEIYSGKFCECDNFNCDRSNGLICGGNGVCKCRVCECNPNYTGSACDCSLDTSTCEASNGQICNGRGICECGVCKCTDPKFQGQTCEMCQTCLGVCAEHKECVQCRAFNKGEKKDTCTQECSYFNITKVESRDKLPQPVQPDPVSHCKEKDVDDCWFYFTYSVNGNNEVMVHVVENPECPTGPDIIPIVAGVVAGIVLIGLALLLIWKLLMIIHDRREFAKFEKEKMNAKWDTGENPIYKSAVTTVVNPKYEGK

Compound	IC50 [1] [µM]	inhibition of TRAP induced platelet aggregation ([1]; at 100 μM)	human platelet adhesion on soluble collagen (GP Ia IIa / α2β1 mediated) [2]	thrombin amidolytic activity [3]	time to occlude the carotid artery (TTO) ([4]; rats)	IC50 ([1]; Platelet) [µM]	effect on TRAP induced platelet aggregation [1]	inhibition of Ristocetin induced platelet aggregation [5]	collagen induced platelet aggregation (ex vivo) [6]	Ferric chloride induced thrombosis in rats ([4]; Table 2 summary)	time to occlusion, dose dependence ([4]; rats, 10, 30 & 100 μM/kg)	Arterio-venous shunt model in hyperlipidemic hamsters ([7]; Table 2 summary, Even at 10 μM)	thrombus weight ([7]; hyperlipidemic hamsters, compound 6 at 10 μM/kg)
1-(4-methylphenylmethyl)-5-oxo-{N-[(3-t-butoxycarbonyl-aminomethyl)]-piperidin-1-yl}-pyrrolidine-2-carboxamides [Compound 1]	> 100	–	–	–	–	–	–	–	–	–	–	–	–
Cc1ccc(CN2C(=O)CC[C@H]2C(=O)N2CCCC(CNC(=O)OC(C)(C)C)C2)cc1 (stereo partly drawn) [Compound 1, 1-(4-methylphenylmethyl)-5-oxo-{N-[(3-t-butoxycarbonyl-aminomethyl)]-piperidin-1-yl}-pyrrolidine-2-carboxamides]	–	significant inhibition	partially inhibited	significant inhibitory effect	failed to exhibit any protection	–	–	–	–	–	–	–	–
Cc1ccc(CN2C(=O)CC[C@H]2C(=O)N2CCC[C@@H](CNC(=O)OC(C)(C)C)C2)cc1 [Compound 6]	–	–	partially inhibited	remained ineffective	significantly prolonged	> 500	did not exhibit any effect	not to exhibit any effect	dose dependent inhibition	Protective	dose dependently exhibited prolongation in time to occlusion	Protective	significantly reduced the thrombus weight
Cc1ccc(CN2C(=O)CC[C@H]2C(=O)N2CCC[C@H](CNC(=O)OC(C)(C)C)C2)cc1 [Compound 7, (2S)-1-(4-methylphenylmethyl)-5-oxo-(3R)-{N-[(3-t-butoxycarbonyl-aminomethyl)]-piperidin-1-yl}-pyrrolidine-2-carboxamide]	–	–	partially inhibited	actively attenuated	–	> 500	did not exhibit any effect	not to exhibit any effect	–	–	–	–	–
